The text below walks through data of PubChem BioAssay AID1996.

In brackets after ≈: the same amount, converted by molar mass.

For the series the following is noted: buffer; pH 7.4; 200.0 µM.
As usually defined, the kinetic solubility is solubility judged after dilution from a stock solution rather than from solid. `COc1ccc(CCNC(=O)c2cccnc2Cl)cc1OC`: the solubility (kinetic) was above 48.1 µg/mL.
To `COc1cc([N+](=O)[O-])ccc1N1C(=O)C2C3C=CC(C4CC34)C2C1=O` (centres undefined) belongs 7.2 µg/mL (≈ 21.2 µM).
With `CC1CCCN(S(=O)(=O)c2cccc3nonc23)C1` (centres undefined) the figure was 13.2 µg/mL (≈ 46.9 µM); with `O=C(NC1CCN(C(=S)Nc2ccc(Cl)cc2)CC1)c1ccco1`, above 54.6 µg/mL; with `CCN(CC)c1nc2ccccc2[nH]c1=O`, 10.7 µg/mL (≈ 49.2 µM).
To `CC(Nc1nc(C(F)(F)F)nc2ccccc12)c1cccs1` (centres undefined) belongs 6.5 µg/mL (≈ 20.1 µM); to `O=C(NCCc1ccccc1)c1ccccc1[N+](=O)[O-]`, 33.6 µg/mL (≈ 124 µM).
In turn, `O=[N+]([O-])c1ccccc1O[C@@H]1O[C@H](CO)[C@H](O)[C@H](O)[C@H]1O` yielded a kinetic solubility above 45.2 µg/mL.
With `CC1(C)CC(=O)C=C(Nc2cccc(C(F)(F)F)c2)C1` the figure was 24 µg/mL (≈ 84.7 µM); with `Nc1cc(N)nc(SCC(=O)Nc2ccccc2N2CCOCC2)n1`, 49.6 µg/mL (≈ 138 µM).
In the case of `N#CC(c1nc2ccccc2nc1N1CCOCC1)S(=O)(=O)c1ccccc1` (centres undefined), the solubility (kinetic) is above 59.2 µg/mL.
With `C=C(C)COc1ccc(C2NC(=O)c3ccccc3O2)cc1OCC` (centres undefined) the figure was 1.9 µg/mL (≈ 5.6 µM).
With `S=C1SCN(Cc2ccco2)CN1Cc1ccco1` the figure was above 44.2 µg/mL; with `Br.COc1ccc(C(=O)CN2CCCCC2)cc1`, above 47.1 µg/mL.
With `COc1ccccc1-n1cnc2sc(C)c(C)c2c1=O` the figure was 15.1 µg/mL (≈ 52.7 µM); with `CCNC(=O)COC(=O)CCNC(=O)c1ccc(Cl)cc1`, above 46.9 µg/mL.
With `CCCCN(C(C)=O)c1ccc(S(=O)(=O)NC2=NCCCCC2)cc1NC(C)=O`, the kinetic solubility was above 63.4 µg/mL.
`N#CC1(NC(=O)CSc2nnc3n2CCCCC3)CCCCC1`: the kinetic solubility was above 50 µg/mL.
Compound `O=C1Nc2c(ccc(Cl)c2Cl)C(=O)C1(F)c1ccccc1` (centres undefined) registered a solubility (kinetic) below 0.7 µg/mL.
To `O=C(O)Cn1cc(CN2CCOCC2)c2ccccc21` belongs 30 µg/mL (≈ 109 µM); to `COc1cc(C)ccc1OCC(=O)NCC1CCCO1` (centres undefined), above 41.9 µg/mL.
With `CN1CCN(CCC(=O)Nc2ccccc2)CC1` the figure was above 37.1 µg/mL; with `Cc1cc(C)n2c(SCC(=O)Nc3cc(S(=O)(=O)N(C)C)ccc3C)nnc2n1`, above 65.2 µg/mL.
As to `Cc1cnc(C(=O)OCC(=O)Nc2cccc(C)c2C)cn1`, the kinetic solubility is above 44.9 µg/mL.
On to `O=C(Nc1ccccn1)c1ccc(-c2ccccc2)cc1`, for which the kinetic solubility is 0.9 µg/mL (≈ 3.28 µM).
To `Cc1c(C(=O)OCC(=O)NC(=O)NC2CCCCC2)cccc1[N+](=O)[O-]` belongs 2.3 µg/mL (≈ 6.33 µM).
With `CC1CC(C)(C)NC(=S)N1CCCC(=O)Nc1ccc(F)cc1` (centres undefined) the figure was 42.8 µg/mL (≈ 127 µM).
With `CCCNC(=O)c1ccc(COc2ccc(CCC)cc2OC)o1` the figure was above 49.7 µg/mL; with `O=C1/C(=C\c2ccncc2)N2CCC1CC2`, above 32.1 µg/mL; with `O=C(CSc1nccc(=O)[nH]1)c1c[nH]c2ccccc12`, above 42.8 µg/mL.
Take `Cc1ccc(S(=O)(=O)N2CCOCC2)cc1NC(=O)Nc1ccc([N+](=O)[O-])cc1`: the kinetic solubility is 1.8 µg/mL (≈ 4.28 µM).
`CC1CCCC(C)N1C(=O)COC(=O)CNC(=O)c1ccccc1` (centres undefined) had a solubility (kinetic) above 49.9 µg/mL.
With `O=c1cc(-c2ccccc2)nc(Sc2ccc([N+](=O)[O-])cc2[N+](=O)[O-])[nH]1` the figure was 3.3 µg/mL (≈ 8.91 µM); with `CC(C[N+](C)(C)C)OC(N)=O.[Cl-]` (centres undefined), above 29.5 µg/mL.
As for `CCc1c(C)nc(N2CCN(c3ccccc3F)CC2)[nH]c1=O`, the solubility (kinetic) was 5.6 µg/mL (≈ 17.7 µM).
With `O=C(C[n+]1ccccc1)Nc1ccccc1[N+](=O)[O-].[Cl-]` the figure was 34 µg/mL; with `Cc1cc(C)nc(Nc2cccc(Cl)c2)n1.Cl`, 5.9 µg/mL.
With `Nc1cc(Cl)ccc1Nc1ccncc1` the figure was above 33 µg/mL.
As for `CCS(=O)(=O)c1ccc2oc(Nc3cccc(OC)c3)nc2c1`, the solubility (kinetic) was 8.2 µg/mL (≈ 24.7 µM).
With `COc1ccc(C(=O)NC(=S)N2CCC(C)CC2)cc1Br` the figure was 8 µg/mL (≈ 21.5 µM).
To `COc1cccc(N2CCN(C(=O)/C=C/c3ccco3)CC2)c1` belongs 44.6 µg/mL (≈ 143 µM); to `O=C(CN1C(=O)NC2NC(=O)NC21)N/N=C/c1ccccc1F` (centres undefined), above 48 µg/mL; to `O=C1CC2c3ccccc3C1C1C(=O)N(CCO)C(=O)C21` (centres undefined), above 42.8 µg/mL.
To `O=C(OCC(=O)N1CCCC1)c1c(Cl)cccc1Cl` belongs 39.6 µg/mL (≈ 131 µM); to `COc1ccccc1C(=O)COC(=O)CN1C(=O)C2CC=CCC2C1=O` (centres undefined), 52 µg/mL (≈ 146 µM).
Regarding `Cc1cc(C)c(NC(=S)NCCO)c(C)c1`, the kinetic solubility was above 35.8 µg/mL.
To `CC1NC(=S)N(Cc2ccccc2)C1=O` (centres undefined) belongs 31.9 µg/mL (≈ 145 µM); to `Fc1ccccc1CSCc1nc2ccccc2[nH]1`, 36.6 µg/mL (≈ 134 µM); to `CC(C)c1ccc(NC(=O)NCc2ccccn2)cc1`, above 40.4 µg/mL.
With `COc1ccc(OCC(=O)N(C)CC2COc3ccccc3O2)cc1` (centres undefined) the figure was above 51.5 µg/mL; with `Cc1cccc(NC(=O)COC(=O)CN2CCCCCC2=O)c1C`, above 49.9 µg/mL; with `CCOC(=O)c1cc2c(ccn2C)n1CC(=O)N(C)C`, above 41.6 µg/mL.
In turn, `N#Cc1ccccc1OCC(=O)OCC(=O)NC1CC1` returned a solubility (kinetic) above 41.1 µg/mL.
In the case of `Cc1ccc(NC(=O)CNC(=O)c2ccc(C)s2)nc1`, the kinetic solubility was above 43.4 µg/mL.
For `Oc1ccccc1-c1nc(NCc2cccnc2)c2ccccc2n1`, the solubility (kinetic) is below 0.2 µg/mL.
With `COc1cc2c(cc1OC)CN(CC(=O)Nc1ccc(F)cc1F)CC2` the figure was 44 µg/mL (≈ 121 µM); with `Cc1ccc(-c2nc(C#N)c(N3CCC(C(N)=O)CC3)o2)cc1`, 1.6 µg/mL (≈ 5.16 µM).
To `O=C(c1cn(Cc2ccccc2)c2ccccc12)C1CC1` belongs below 0.6 µg/mL.
With `CC1CCN(C2CC(=O)N(c3ccc(Br)cc3Br)C2=O)CC1` (centres undefined) the figure was 40.4 µg/mL (≈ 93.9 µM); with `CCCCC(=O)Nc1ccccc1N1CCN(c2ccc(F)cc2)CC1`, 4.3 µg/mL (≈ 12.1 µM).
Compound `CC(=O)Nc1ccc(S(=O)(=O)NC2CCS(=O)(=O)C2)cc1Cl` (centres undefined) registered a kinetic solubility of 23.8 µg/mL (≈ 64.9 µM).
With `CN(/C=C/c1c([N+](=O)[O-])c(=O)n(C)c(=O)n1C)c1ccccc1` the figure was 4.9 µg/mL (≈ 15.5 µM); with `Cc1nc(SC(C(N)=O)c2ccccc2)c(C#N)c(C)c1C` (centres undefined), 1 µg/mL (≈ 3.21 µM); with `Cl.NS(=O)(=O)c1ccc(CCNCc2cccnc2)cc1`, 40.5 µg/mL.
To `CCOc1ccccc1/C=C/c1nc2ccccc2[nH]c1=O` belongs 1.6 µg/mL (≈ 5.47 µM).
`O=C(COC(=O)c1cccc(O)c1)Nc1ccc(OC(F)F)cc1`: the kinetic solubility came out at 46.2 µg/mL (≈ 137 µM).
Consider `C#Cc1cccc(NC(=O)Cc2cccs2)c1`, for which the kinetic solubility was above 36.2 µg/mL.
For the compound `CCOC(=O)c1c(N)sc(C(=O)Nc2ccccc2)c1C`, the kinetic solubility came out at 40.7 µg/mL (≈ 134 µM).
In the case of `COc1ccccc1N1CCN(CCN2C(=O)C3CCCN3C2=O)CC1` (centres undefined), the kinetic solubility is 40.7 µg/mL (≈ 114 µM).
To `O=C(Cc1cccs1)NCCCc1ccccc1` belongs above 38.9 µg/mL.
With `Cn1cccc1C(=O)OCC(=O)N1CCc2ccccc21` the figure was 2.8 µg/mL (≈ 9.85 µM); with `COP(=O)(Cc1ccc(C#N)o1)OC`, above 32.3 µg/mL.
Take `COc1ccccc1N1CCN(CC(O)c2c(C)[nH]c3ccccc23)CC1` (centres undefined): the solubility (kinetic) is above 54.8 µg/mL.
With `Oc1ccc(Br)cc1CNc1cccc2cccnc12` the figure was 1 µg/mL (≈ 3.04 µM).
